What was measured:
[1] = tested on: Ishikawa human endometrium carcinoma cell line; experiment: Inhibition of colony formation (dose-survival relation, Example 18); format: cell-based; details: 50 µM
Protocol: (§1) In the case of cytostatics the cell-damaging effect is not cell-specific. […] One part of the arrested cells again go into the cycle, the other part may perish (apoptosis). […] The investigations were carried out on MCF-7 and MDA-MB-231 human mammary carcinoma cell lines, PC3 human prostate 15 carcinoma cell line and Ishikawa human endometrium carcinoma cell line. Three hundred cells were set into Petri dishes of 3.5 cm in diameter each. The treatment was carried out once, 24 hours following the explantation, then the colonies formed were counted after 9 to 12 days.

[2] = tested on: MCF-7 human mammary carcinoma cell line; experiment: as above; format: cell-based; details: 50 µM (active substance), treated once
Protocol: as §1

[3] = tested on: PC3 human prostate carcinoma cell line; experiment: as above; format: cell-based; details: 50 µM
Protocol: as §1

[4] = tested on: human tumour cell lines; experiment: Inhibition of colony formation (Example 18), cell line not given; format: cell-based; details: on any cell line (Table 1)
Protocol: as §1, with “The investigation gives a precise information about the cell-damaging effect of the tested substance. In” for “In”

[5] = tested on: MCF-7; details: MCF-7; 30 µM active substance; conjugate, treated once; cell count on 7th day; listed as 11. P-GFLG-GnRH-III
Protocol: (§2) The procedure of treatment was as follows. After trypsinization the cells, 400,000 cells of MCF-7, MDA-MB-231 human mammary carcinoma, PC3 human prostate carcinoma or Ishikawa human endometrium tumour each were passed into Petri dishes of 10 cm in diameter. Starting from the day following transfer, the cells were treated with the substances to be tested in solution prepared with the nutrient medium during the exponential growth phase. […]

[6] = tested on: MDA-MB-231; details: MDA-MB-231; 30 µM active substance; conjugate, treated once; listed as 11. P-GFLG-GnRH-III
Protocol: as §2

[7] = tested on: MDA-MB-231 xenograft; experiment: In vivo antitumour effect on MDA-MB-231 xenograft in immunosuppressed mice; set-up: species or system CBA/Ca mice
Protocol: The immunosuppression of mice was carried out by using the method of Steel et al. [Br. J. Cancer, 37, 224-230 (1978)]. Immunosuppression and xeno-transplantation
CBA-Ca female mice of about 6 weeks old were thymectomized and then, after one week, they were irradiated with 60Co (whole body irradiation; the lethal dose is 9.5 Gray). Within 24 hours 3 to 5 x 10^5 myelocytes were injected into the animals. Beneath the skin of the immunosuppressed mice 2 x 10^7 tumour cells or, in the case of later passages, […] were implanted. […] The treatment with steroid hormone was stopped by at least one week before beginning the investigation.
Recent investigations have begun on 28 animals bearing MCF-7 xenograft and on 28 animals bearing MDA-MB-231 xenograft. On animals bearing MCF-7 tumour the treatment was commenced in the 5th week following xeno-transplantation; the tumour volume was 205 to 225 mm^3. On animals bearing MDA-MB-231 tumour, the treatment was started in the 4th week after xeno-transplantation with a tumour volume of 140 to 150 mm^3. […] The control groups were daily treated with physiological saline s.c. (Each treated group consisting of 7 animals).
A more recent study was started on 28 animals bearing MDA-MB-231 xenograft. The treatment was begun in the 4th or 5th week following xenotransplantation. The tumour volume was 0.165 to 0.194 cm^3. […] (For treatment of the control group, see the preceding Examples). Each group consisted of 7 animals.

[8] = Ovulation / cycle of female rats during prolonged treatment; format: in vivo; details: high dose of the coupled GnRH-III; three cycles observed
From the text: In 1993, researchers isolated and synthesized the Lamprey-III-GnRH decapeptide from lamprey (Petromyzon marinus) (p[…]NH2). This Lamprey-III-GnRH (herein below GnRH-III) exerts a significant tumour growth-inhibiting effect on human mammary tumour cell lines.

[9] = MDA-MB-231 xenograft, after 9 week treatment, 100 µg daily s.c.
[10] = Table V, treatment week 2, 1x100 µg daily s.c.
[11] = Table V, treatment week 4, 1x100 µg daily s.c.
[12] = Table V, treatment week 6, 1x100 µg daily s.c.
[13] = week 0, daily s.c., 1 x 100 µg series
[14] = week 1, daily s.c., 1 x 100 µg series
[15] = week 2, daily s.c., 1 x 100 µg series
[16] = week 3, daily s.c., 1 x 100 µg series
[17] = week 4, daily s.c., 1 x 100 µg series
[18] = week 5, daily s.c., 1 x 100 µg series
[19] = week 6, daily s.c., 1 x 100 µg series
[20] = week 7, daily s.c., 1 x 100 µg series

## {Lys[n-poly(N-vinylpyrrolidone-co-maleic acid)-Gly-Phe-Leu-Gly-]}^8,-GnRH-III [P-GFLG-GnRH-III]
[1]
  % Inhibition of colony formation: 15%
[2]
  % Inhibition of colony formation: 9%
[3]
  % Inhibition of colony formation: 16%
[4]
  inhibition of colony formation: ≤ 16%
[5]
  % Inhibition of cell division (proliferation): 10%
[6]
  % Inhibition of cell division (proliferation): 11%
[7]; MDA-MB-231 xenograft, 100 µg daily s.c., 6th week of treatment
  animals that became tumour-free: 2 animals from 7
[7]; [9]
  Volume (cm^3) of tumours: 0.613 ± 0.307 cm^3
  Weight (g) of tumours: 0.45 ± 0.4 g
[7]; [10]
  Inhibition %: 20%
  Tumour volume as control (%): 80%
[7]; [11]
  Inhibition %: 36%
  Tumour volume as control (%): 64%
[7]; [12]
  Inhibition %: 67%
  Tumour volume as control (%): 33%
[7]; [13]
  Tumour volume (cm^3): 0.17 cm^3
  Tumour volume as control (%): 104%
[7]; [14]
  Tumour volume (cm^3): 0.25 cm^3
  Tumour volume as control (%): 107%
[7]; [15]
  Tumour volume (cm^3): 0.33 cm^3
  Tumour volume as control (%): 80%
[7]; [16]
  Tumour volume (cm^3): 0.40 cm^3
  Tumour volume as control (%): 72%
[7]; [17]
  Tumour volume (cm^3): 0.41 cm^3
  Tumour volume as control (%): 64%
[7]; [18]
  Tumour volume (cm^3): 0.49 cm^3
  Tumour volume as control (%): 53%
[7]; [19]
  Tumour volume (cm^3): 0.40 cm^3
  Tumour volume as control (%): 32%
[7]; [20]
  Tumour volume (cm^3): 0.31 cm^3
  Tumour volume as control (%): 24%
[8]
  cycle of female rats (castration effect): not influenced

Source: patent EP0728012B1, “NOVEL GnRH ANALOGUES WITH ANTITUMOUR EFFECTS AND PHARMACEUTICAL COMPOSITIONS THEREOF” (Lovas, Sandor, priority 1994, dated 1996)
